Measured values: article PMC6271697, “Anticancer Activities of Polyynes from the Root Bark of Oplopanax horridus and Their Acetylated Derivatives” (Molecules, 2014)
Where “and” joins values, the source holds several entries; their conditions need not be identical. Equal entries are not always repeated.

Assays:
Format in all cases: cell-based, human
MDA-MB-231 cells [1] = assay: Cell cycle analysis by PI staining and flow cytometry; details: 24 h; for G2/M arrest rate at low concentration: OHR-1 7.5 μM, OHR-2 2.5 μM, OHR-3 5 μM, OHR-5 7.5 μM; for G2/M arrest rate at high concentration: OHR-1 15 μM, OHR-2 5 μM, OHR-3 10 μM, OHR-5 15 μM
Procedure: Cells were seeded in 6-well tissue culture plates and treated with DMSO control or different concentration of OHR-1, -2, -3 and -5 for 24 h. Then, the cells were harvested and fixed gently with cold 70% ethanol at −20 °C overnight. Finally, the cells were washed with PBS and re-suspended in 300 μL of propidium iodide (PI) stain solution (20 μg/mL PI and 8 μg/mL DNase-free RNase) for 20 min at room temperature in the dark. The cells were analyzed with a flow cytometry and Mod Fit LT 3.0 software (Variety Software House, Topsham, ME, USA). For each measurement, at least 20,000 cells were counted.

HepG2 cells = assay: MTT cell viability assay, HepG2 cells; details: for IC50: MTT, 24 h incubation, read-out: IC50 HepG2; for antiproliferative effect on HepG2 cells (in words): concentrations 1–300 µM
Procedure: (§1) The human breast cancer cell lines MCF-7, MDA-MB-231, human hepatocellular liver cell line HepG2 and human lung carcinoma epithelial cells A549 were purchased from American Type Culture Collection (ATCC, Manassas, VA, USA). Normal human hepatic LO2 cells were obtained from the Institute of Cell Biology, Academic Sinica (Shanghai, China). The cells were grown in an atmosphere of 5% CO2 at 37 °C in RPMI 1640 medium supplemented with 10% fetal bovine serum, 100 U/mL penicillin and […] streptomycin.
(§2) The viability of cells was measured by a colorimetric MTT assay. Briefly, 1 × 10^4 cells/well in 96-well microplates were exposed to different concentration of polyynes and their acetylated derivatives respectively for 24 h incubation, following addition of 20 μL MTT solution (4 mg/mL) to each well for another 4 h incubation at 37 °C. Finally, the medium was removed and replaced with 100 μL dimethyl sulfoxide which was added to dissolve the dye crystal presented in cells. The absorbance was recorded at 570 nm using a microplate reader (1420 Multilabel counter victor^3, Perkin-Elmer, Waltham, MA, USA). The results were expressed as ratio of absorbance between treatments and control cells (solvent vehicle set at 100%). Four replicate wells were tested per assay which was repeated three times.

LO2 cells = assay: MTT cell viability assay, normal hepatic LO2 cells; details: normal human hepatic cells, MTT, 24 h incubation; read-out: IC50 LO2
Procedure: as §1, §2

MCF-7 cells = assay: MTT cell viability assay, MCF-7 cells; details: for IC50: MTT, 24 h incubation, read-out: IC50 MCF-7; for antiproliferative effect on MCF-7 cells (in words): concentrations 1–300 µM
Procedure: as §1, §2

MDA-MB-231 cells [2] = assay: MTT cell viability assay, MDA-MB-231 cells; details: for IC50: MTT, 24 h incubation, read-out: IC50 MDA-MB-231
Procedure: as §1, §2

MDA-MB-231 cells [3] = assay: Hoechst 33342 staining for apoptosis; details: OHR-1 15 μM, OHR-2 5 μM, OHR-3 10 μM, OHR-5 15 μM; 12 h
Procedure: MDA-MB-231 cells were seeded in the flat-bottomed 6-well plates and treated with OHR-1, -2, -3 and -5. Cells treated with solvent vehicle served as controls. In 12 h after treatment, cells were fixed in 4% polyoxymethylene solution for 30 min and then washed with PBS. The fixed cells were incubated with Hoechst 33342 for 15 min at room temperature in the dark and then washed with PBS twice, which were finally observed under a fluorescence microscope (Convert Fluorescence Microsope Axiovert 200, HAL 100, HBO 100, Carl Zeiss MicroImaging Co., Ltd., Oberkochen, Germany) at a magnification of ×400.

MDA-MB-231 cells [4] = assay: JC-1 mitochondrial membrane potential; details: high concentration (OHR-1 15 μM, OHR-2 5 μM, OHR-3 10 μM, OHR-5 15 μM), 24 h
Procedure: The MDA-MB-231 cells were treated with OHR-1, -2, -3 and -5 for 24 h in a humidified atmosphere (37 °C with 5% CO2). The cells were collected and responded in 0.5 mL culture medium with JC-1 dye (1 μg/mL) for 20 min at 37 °C in dark. Fluorescence was monitored by both flow cytometry (BD Biosciences, San Jose, CA, USA) and fluorescence microscope. The Δψm were indicated by the rato of […] fluorescence intensity. The data were expressed as ratio of Δψm between treatments and control cells (solvent vehicle set at 100%).

A549 cells = assay: MTT cell viability assay, A549 cells; details: for IC50: MTT, 24 h incubation, read-out: IC50 A549; for antiproliferative effect on A549 cells (in words): concentrations 1–300 µM
Procedure: as §1, §2

Row | Substance | G2/M arrest rate at low concentration (MDA-MB-231 cells [1]) | G2/M arrest rate at high concentration (MDA-MB-231 cells [1]) | IC50 (HepG2 cells) [µM] | IC50 (LO2 cells) [µM] | IC50 (MCF-7 cells) [µM] | IC50 (MDA-MB-231 cells [2]) [µM] | induction of apoptosis (Hoechst staining) (MDA-MB-231 cells [3]) | effect on mitochondrial membrane potential Δψm (JC-1) (MDA-MB-231 cells [4]) | IC50 (A549 cells) | A549 cell growth inhibited (A549 cells; at 60 µM, p < 0.01) [%] | antiproliferative effect on HepG2 cells (in words) (HepG2 cells) | antiproliferative effect on MCF-7 cells (in words) (MCF-7 cells) | concentration showing some antiproliferative effects on MDA-MB-231 cells (MDA-MB-231 cells [2]) | antiproliferative effect on A549 cells (in words) (A549 cells)
1 | (3S,8S,Z)-3-Hydroxyheptadeca-9-en-4,6-diyn-8-yl acetate [OHR-3] | 24.2% ± 2.9% | 25.6% ± 7.5% | 31.5 ± 2.1 | 31.5 ± 4 | 25.8 ± 5.8 | 6.6 ± 0.8 | induce obvious apoptosis | decreasing the Δψm | 30.1 µM and 31.4 µM | 90.8 | – | – | – | –
2 | (3S,8S,Z)-8-Hydroxyheptadeca-1,9-dien-4,6-diyn-3-yl acetate [OHR-6] | – | – | 38.5 ± 6.2 | 46.1 ± 11.7 | – | 36.2 ± 13.4 | – | – | – | – | – | – | – | –
3 | (3S,8S,Z)-8-Hydroxyheptadeca-9-en-4,6-diyn-3-yl acetate [OHR-4] | – | – | 59.5 ± 3.1 | 34.3 ± 1.5 | 28 ± 2.9 | 23.4 ± 3.2 | – | – | 31.4 µM and 33.3 µM | – | – | – | – | –
4 | (3S,8S,Z)-18-Hydroxyoctadeca-1,9-dien-4,6-diyne-3,8-diyl diacetate [OHR-14] | – | – | 150 to 300 | > 300 | > 300 | 156 ± 35.5 | – | – | > 300 µM | – | no cytotoxicity | no cytotoxicity | about 150 µM | no cytotoxicity
5 | (3S,8S,Z)-18-Hydroxyoctadeca-9-en-4,6-diyne-3,8-diyl diacetate [OHR-13] | – | – | > 300 | > 300 | > 300 | 137 ± 28.4 | – | – | > 300 µM | – | no cytotoxicity | no cytotoxicity | about 150 µM | no cytotoxicity
6 | (3S,8S,Z)-Heptadeca-1,9-dien-4,6-diyne-3,8-diyl diacetate [OHR-2] | 22.6% ± 2.6% | 30.4% ± 3.1% | 6.6 ± 1.5 | 32.1 ± 9 | 36.9 ± 4.8 | 4.8 ± 0.5 | induce obvious apoptosis | decreasing the Δψm | 24.7 ± 5.6 µM | – | – | – | – | –
7 | (11S,16S,Z)-11-Hydroxyoctadeca-9-en-12,14-diyne-1,16-diyl diacetate [OHR-11] | – | – | 77 ± 9.5 | 93.1 ± 14 | 78.1 ± 3.4 | 51.5 ± 8.4 | – | – | 98.2 ± 17.5 µM | – | – | – | – | –
8 | (11S,16S,Z)-16-Hydroxyoctadeca-9,17-dien-12,14-diyne-1,11-diyl diacetate [OHR-10] | – | – | 78.4 ± 6.5 | 100 to 300 | 94.3 ± 6.1 | 56.7 ± 6.9 | – | – | 101 ± 7.3 µM | – | – | – | – | –
9 | (11S,16S,Z)-Octadeca-9,17-dien-12,14-diyne-1,11,16-triyl triacetate [OHR-8] | – | – | 100 to 300 | > 300 | > 300 | 19.6 ± 6.9 | – | – | > 300 µM | – | – | – | – | –
10 | (11S,16S,Z)-Octadeca-9-en-12,14-diyne-1,11,16-triyl triacetate [OHR-7] | – | – | > 300 | > 300 | > 300 | > 300 | – | – | > 300 µM | – | – | – | – | –
